Measured values from patent US5955462A, “Anti-neurogenic inflammatory compounds and compositions and methods of use thereof” (Harbor Branch Oceanographic Institution, Inc., priority 1997, dated 1999).
Values joined by “and” are separate entries in the source; they are usually repeats but may differ in a detail not shown here. Identical values can stand only once.

How the values were obtained:
[1] = system: mouse ear; test: Inhibition of resiniferatoxin (RTX)-induced edema in a mouse ear model; assay type: in vivo; settings: for ED50 for inhibition of RTX-induced edema: dose response curve
Method: A. Inhibition of Capsaicin-Induced Inflammation (Edema) of the Mouse Ear. Induction of mouse ear edema was based on known methods. Inoue, H., Nagata, N., and Koshihara, Y. (1993). Profile of capsaicin-induced mouse ear oedema as neurogenic inflammatory model: comparison with arachidonic acid-induced ear oedema. Br. J. Pharm 110:1614-20. […] CAP alone (250 μg/ear) or in combination with various dilutions of test compound are applied to both sides of the left ears (5 mice per treatment group) and acetone is applied to all right ears. After a 30 minute incubation, the mice are sacrificed, the ears removed, and bores taken and weighed. Edema is measured by subtracting the weight of the right ear (acetone control) from the weight of the left ear (treated).
B. Inhibition of Resiniferatoxin (RTX)-induced edema in a mouse ear model. Topsentin was also tested for its inhibitory activity against inflammation induced by the neurogenic inflammation producing compound, resiniferatoxin (RTX). Using a mouse ear model, the experimental procedure is substantially the same as that described for the capsaicin-induced inflammation assay (see section A of this Example, above).

[2] = system: mouse ear; test: Inhibition of capsaicin-induced inflammation (edema) of the mouse ear; assay type: in vivo; settings: for potency in inhibiting neurogenic inflammation compared with capsazepine: capsaicin-induced edema in mouse ears
From the text: The assay employing mice (e.g., administration to the ear of the mouse) is routinely used by those skilled in the art and is accepted as indicative of anti-inflammatory activity in humans. This assay is described below.
A. Inhibition of Capsaicin-Induced Inflammation (Edema) of the Mouse Ear. Induction of mouse ear edema was based on known methods. Inoue, H., Nagata, N., and Koshihara, Y. (1993). Profile of capsaicin-induced mouse ear oedema as neurogenic inflammatory model: comparison with arachidonic acid-induced ear oedema. Br. J. Pharm 110:1614-20. Compounds to be tested for anti-neurogenic inflammatory activity are topically applied in acetone to the ears of mice in a solution that includes the edema-causing irritant, capsaicin (CAP). CAP alone (250 μg/ear) or in combination with various dilutions of test compound are applied to both sides of the left ears (5 mice per treatment group) and acetone is applied to all right ears. After a 30 minute incubation, the mice are sacrificed, the ears removed, and bores taken and weighed. Edema is measured by subtracting the weight of the right ear (acetone control) from the weight of the left ear (treated). Results are recorded as % decrease (inhibition) or % increase (potentiation) in edema relative to the control group edema.

[3] = Mus musculus, topical, 3.12 μg/ear, read-out: % Inh. of Edema
[4] = Mus musculus, topical, 6.25 μg/ear, read-out: % Inh. of Edema
[5] = Mus musculus, topical, 12.5 μg/ear, read-out: % Inh. of Edema
[6] = Mus musculus, topical, 25 μg/ear, read-out: % Inh. of Edema
[7] = Mus musculus, topical, 50 μg/ear, read-out: % Inh. of Edema
[8] = 3.12 μg/ear, listed as hamacanthin b
[9] = 50 μg/ear, listed as hamacanthin b

NCC(c1c[nH]c2cc(Br)ccc12)c1c[nH]c2cc(Br)ccc12 [2,2-bis(6-bromoindol-3-yl)ethyl amine]
Mean difference ([1]; 3.12 μg/ear): 11.9 mg
Mean difference ([1]; 6.25 μg/ear): 13.2 mg
Mean difference ([1]; 12.5 μg/ear): 5.8 mg
Mean difference ([1]; 25 μg/ear): 2.1 mg
inhibition of RTX-induced edema in certain animals ([1]; 50 μg on the ear): ~100%
Mean difference ([1]; 50 μg/ear): 0.1 mg
inhibition in vivo at 3.12 µg/ear [1, 3]: 6.8%
inhibition in vivo at 6.25 µg/ear [1, 4]: 18%
inhibition in vivo at 12.5 µg/ear [1, 5]: 86.8%
inhibition in vivo at 25 µg/ear [1, 6]: 81.5%
inhibition in vivo at 50 µg/ear [1, 7]: ~99%
ED50 for inhibition of RTX-induced edema [1]: about 18.1 μg/ear

Brc1ccc2c(-c3c[nH]c(-c4c[nH]c5cc(Br)ccc45)n3)c[nH]c2c1 [Nortopsentin A]
Mean difference ([1]; 50 μg/ear): -0.4 mg
inhibition in vivo at 50 µg/ear [1, 7]: 100%

CC(c1c[nH]c(N)n1)c1ccc(O)c2[nH]cc(-c3cnc(-c4c[nH]c5cc(Br)ccc45)c(=O)[nH]3)c12 (centres unmarked) [Dragmacidin d, Dragmacidin-d]
Mean difference ([1]; 50 μg/ear): 1.4 mg
inhibition in vivo at 50 µg/ear [1, 7]: 89.6%

O=C(c1nc(-c2c[nH]c3ccccc23)c[nH]1)c1c[nH]c2cc(O)ccc12 [Topsentin]
% Inhibition of capsaicin-induced edema ([2]; 100 μg/ear): 28%
Inflammation (mg) ± SEM ([2]; 100 μg/ear topical, capsaicin 250 μg/ear): 4.8 ± 1.0 mg
% Inhibition of capsaicin-induced edema ([2]; 100 μg/ear, listed as topsentin): more than 25%
% Inhibition of capsaicin-induced edema ([2]; 250 μg/ear): 66%
% Inhibition of capsaicin-induced edema ([2]; 500 μg/ear): 74%
% Inhibition of capsaicin-induced edema ([2]; 1000 μg/ear): 90%
potency in inhibiting neurogenic inflammation compared with capsazepine [2]: greater potency in inhibiting neurogenic inflammation than capsazepine
ED50 in inhibition of capsaicin-induced inflammation ([2]; dose-response curve, FIG. 1): about 200 μg/ear
percent inhibition of edema (up to) ([2]; final concentration of about 1000 μM): approximately 90%
Mean difference ([1]; 5 μg/ear): 12.3 mg
Mean difference ([1]; 10 μg/ear): 9.6 mg
Mean difference ([1]; 25 μg/ear): 8.3 mg
Mean difference ([1]; 50 μg/ear): 2.6 mg
inhibition of RTX-induced edema in certain animals ([1]; 100 μg on the ear): about 100%
Mean difference ([1]; 100 μg/ear): 1.3 mg
inhibition in vivo at 5 µg/ear ([1]; Mus musculus, topical, 5 μg/ear, read-out: % Inh. of Edema): ~12%
inhibition in vivo at 10 µg/ear ([1]; Mus musculus, topical, 10 μg/ear, read-out: % Inh. of Edema): 31%
inhibition in vivo at 25 µg/ear [1, 6]: 41%
inhibition in vivo at 50 µg/ear [1, 7]: 82%
inhibition in vivo at 100 µg/ear ([1]; Mus musculus, topical, 100 μg/ear, read-out: % Inh. of Edema): ~91%
ED50 for inhibition of RTX-induced edema [1]: about 20 μg/ear

O=C1NC[C@H](c2c[nH]c3cc(Br)ccc23)N=C1c1c[nH]c2cc(Br)ccc12 [Hamacanthin B]
Mean difference ([1]; 3.12 μg/ear): 3.9 mg
% Inh. of Edema ([1]; 3.12 μg/ear, listed as Hamacanthin b): 68%
% Inh. of Edema [1, 8]: 68.8%
Difference (mg), left minus right ear, individual animal [1, 8]: 4.4 mg and 6.9 mg and 1.5 mg and 1.2 mg and 5.3 mg
% Inh. of Edema ([1]; 6.25 μg/ear): 46.0%
Difference (mg), left minus right ear, individual animal ([1]; 6.25 μg/ear): 6.9 mg and 7.4 mg and 7.0 mg and 8.4 mg and 5.4 mg
Mean difference ([1]; 6.25 μg/ear): 6.7 mg
% Inh. of Edema ([1]; 12.5 μg/ear): 86.8%
Difference (mg), left minus right ear, individual animal ([1]; 12.5 μg/ear): 4.6 mg and 4.1 mg and 6.1 mg and 8.3 mg and 1.4 mg
Mean difference ([1]; 12.5 μg/ear): 4.9 mg
% Inh. of Edema ([1]; 25 μg/ear): 81.6%
Difference (mg), left minus right ear, individual animal ([1]; 25 μg/ear): 2.3 mg and 4.2 mg and 2.0 mg and 1.0 mg and 1.9 mg
Mean difference ([1]; 25 μg/ear): 2.3 mg
inhibition of RTX-induced edema in certain animals ([1]; 50 μg on the ear): ~100%
Mean difference ([1]; 50 μg/ear): 0.4 mg
% Inh. of Edema ([1]; 50 μg/ear, listed as Hamacanthin b): about 97%
% Inh. of Edema [1, 9]: 96.9%
Difference (mg), left minus right ear, individual animal [1, 9]: 0.2 mg and 0.0 mg and 1.4 mg and 0.1 mg
ED50 for inhibition of RTX-induced edema [1]: about 1.5 μg/ear

CS(=O)(=O)Oc1ccc2c(C(=O)c3nc(-c4c[nH]c5cc(Br)ccc45)c[nH]3)c[nH]c2c1 [o-mesylbromotopsentin, bromotopsentin-O-mesylate]
Mean difference ([1]; 3.12 μg/ear): 9.2 mg
Mean difference ([1]; 6.25 μg/ear): 7.2 mg
Mean difference ([1]; 12.5 μg/ear): 8.3 mg
Mean difference ([1]; 25 μg/ear): 2.3 mg
inhibition of RTX-induced edema in certain animals ([1]; 50 μg on the ear): 70%
Mean difference ([1]; 50 μg/ear): 3 mg
inhibition in vivo at 3.12 µg/ear [1, 3]: 8.9%
inhibition in vivo at 6.25 µg/ear [1, 4]: 28%
inhibition in vivo at 12.5 µg/ear [1, 5]: 86.8%
inhibition in vivo at 25 µg/ear [1, 6]: 77.6%
inhibition in vivo at 50 µg/ear [1, 7]: 70.3%
ED50 for inhibition of RTX-induced edema [1]: about 17 μg/ear

O=C(C1=NC(c2c[nH]c3cc(Br)ccc23)CN1)c1c[nH]c2ccccc12 (centres unmarked) [4,5-dihydro-6"-deoxybromotopsentin]
Mean difference ([1]; 50 μg/ear): 3.3 mg
inhibition in vivo at 50 µg/ear [1, 7]: 87.1%

Brc1ccc2c(-c3c[nH]c(-c4c[nH]c5ccccc45)n3)c[nH]c2c1 [Nortopsentin C]
Mean difference ([1]; 3.12 μg/ear): 9.3 mg
Mean difference ([1]; 6.25 μg/ear): 5.4 mg
Mean difference ([1]; 12.5 μg/ear): 1.3 mg
Mean difference ([1]; 25 μg/ear): 1.0 mg
inhibition of RTX-induced edema in certain animals ([1]; 50 μg on the ear): ~100%
Mean difference ([1]; 50 μg/ear): 0.2 mg
inhibition in vivo at 3.12 µg/ear [1, 3]: 5.9%
inhibition in vivo at 6.25 µg/ear [1, 4]: 45%
inhibition in vivo at 12.5 µg/ear [1, 5]: 86.8%
inhibition in vivo at 25 µg/ear [1, 6]: 90.2%
inhibition in vivo at 50 µg/ear [1, 7]: ~98%
ED50 for inhibition of RTX-induced edema [1]: about 8 μg/ear

O=C(c1nc(-c2c[nH]c3cc(Br)ccc23)c[nH]1)c1c[nH]c2cc(O)ccc12 [Bromotopsentin]
% Inhibition of capsaicin-induced edema ([2]; 500 μg/ear): 79%
potency in inhibiting neurogenic inflammation compared with capsazepine [2]: greater potency in inhibiting neurogenic inflammation than capsazepine

Brc1ccc2c(-c3nc(-c4c[nH]c5ccccc45)c[nH]3)c[nH]c2c1 [Nortopsentin B]
Mean difference ([1]; 50 μg/ear): 0.9 mg
inhibition in vivo at 50 µg/ear [1, 7]: 91.2%

Oc1cc2c(cc1O)CN(C(=S)NCCc1ccc(Cl)cc1)CCC2 [Capsazepine, reference compound]
% Inhibition of capsaicin-induced edema ([2]; 500 μg/ear): 33%
% Inhibition of capsaicin-induced edema ([2]; 1000 μg/ear): 52%
% Inhibition of capsaicin-induced edema ([2]; 1500 μg/ear): 76%
